In patent US9834784B2, “Pest resistant plants” (Keygene N.V., priority 2011, dated 2017):

Experiments:
[1] = tested on: adult whiteflies B. tabaci; conditions: Antonious et al. 2005; cited from earlier work
[2] = tested on: fourth instar larvae of Colorado potato beetle; conditions: Antonious et al. 2005; cited from earlier work
[3] = tested on: B. tabaci (biotype Q); assay: Clip cage bioassay B. tabaci (whitefly); format: in vivo, Bemisia tabaci; conditions: clip cages, 20 adults, after 5 days; compared with S. lycopersicum C32
Procedure: An interspecies cross between S. lycopersicum and S. habrochaites was performed and F2 lines were transferred to the greenhouse at the University of Amsterdam. The F2 plants were tested for their production of 7-epizingiberene. Cuttings were made of 7-epizingiberene producing F2 lines, S. lycopersicum C32 (moneymaker) and of S. habrochaites (PI127826). Both a parental line of the initial cross.
Two cuttings of genotypes PI127826 and C32 and the respective F2s received 4 clip cages, each of which contained 20 adult B. tabaci (biotype Q) initially collected in Almeria (Spain) and reared continuously on cucumber under laboratory conditions (see Bleeker et al., 2009—Plant Physiol.). After 5 days, the total number and percentage of dead flies and total nr of eggs (combined abaxial and adaxial side of leaves) was determined.

[4] = tested on: Tuta absoluta; assay: No-choice oviposition assay Tuta absoluta; format: in vivo; conditions: F2 plants, FIGS. 10A and 10B
Procedure: Tuta absoluta (order: Lepidoptera) were reared on tomato (S. lycopersicum). A no-choice assay was performed for 7 days. 5 adults were allowed to oviposit their eggs on S. lycopersicum (C32) plants and on F2 plants arisen from an interspecies cross between S. lycopersicum (C32) and S. habrochaites (PI127826). After 7 days, Tuta abosoluta oviposition (number of eggs deposited) was determined on the abaxial and adaxial side of six leaves per plant genotype. F2 plants were characterized for 7-epizingiberene content after the assay and Tuta abosoluta oviposition (number of eggs deposited) was correlated to the content of 7-epizingiberene.

[5] = tested on: Bemisia tabaci whiteflies; conditions: cited from earlier work; for attractiveness of cultivated tomato to B. tabaci after addition of the compound: compared with neighbouring siblings, Bleeker et al. 2011; for repellent to Bemisia tabaci whiteflies: purified compounds, Bleeker et al., Phytochemistry 2011
[6] = isolated compound; previously observed by Bleeker et al. 2011; cited from earlier work
[7] = Enzyme activity assay with zFPP, products by enantioselective GC-MS; format: biochemical; conditions: heterologously expressed in E. coli; SPME, chiral column
Procedure: The full length gene (comprising SEQ ID NO:4 5′ of SEQ ID NO:2 (SEQ ID NO:4-SEQ ID NO:2)) was cloned into the pGEX-KG expression vector (Guan and Dixon 1991). Constructs were transformed to C41 (DE3) E. coli cells (Dumon-Seignovert et al., 2004). As a control, empty pGEX-KG vector was transformed. A culture was grown to an OD600 of 0.5-0.6 at 37° C. and placed at 4° C. for 30 min. Protein expression was induced with 1 mM isopropyl β-D-1-thiogalactopyranoside (IPTG). After 16 hours incubation at 16° C., cells were harvested by centrifugation. The supernatant was removed and the pellet was resuspended in assay buffer (25 mM HEPES, pH 7.2, 10 mM MgCl2, 10% (v/v) glycerol) with added lysozyme (1 mg mL^−1) and proteinase inhibitors and incubated on ice for 30 minutes and subsequently sonicated. The lysate was centrifuged and the supernatant was stored at −80° C. Activity assays were performed in 500 μL 50 mM HEPES, pH7.2, 100 mM KCl, 7.5 mM MgCl2, 20 μM MgCl2, 5% (v/v) glycerol, 5 mM DTT with 50 μL protein and 2 mM cis-FPP(2Z-6Z-farnesyl diphosphate) as substrate. Enzyme products were analyzed by GC-MS with Solid Phase Micro Extraction fiber (SPME). Terpene products were identified using standards and comparing ion spectra, retention time and Kovats Index (see FIGS. 1 and 2). […]

[8] = Enzyme activity assay with E-E-FPP, products by enantioselective GC-MS; format: biochemical; conditions: heterologously expressed; SPME, chiral column
Procedure: Activity assays were performed in 20 mL glass vials in a total volume of 500 μL 50 mM HEPES, pH7.2, 100 mM KCl, 7.5 mM MgCl2, 20 μM MgCl2, 5% (v/v) glycerol, 5 mM DTT with 50 μL protein and either 2 mM cis-FPP (2Z-6Z-farnesyl diphosphate), trans-FPP (E-E-farnesyl diphosphate), GPP (geranyl diphosphate), NDP (neryl diphosphate), or GGPP (geranylgeranyl diphosphate) as a substrate (Echelon Biosciences Incorporated, Salt Lake City, USA). Vials were closed with a teflon lined crimp cap immediately and incubated under moderate shaking for 1 hour at 30° C.
Enzyme products were sampled with a Solid Phase Micro Extraction fiber (SPME) for 10 minutes after the vial had been agitated and heated to 50° C. The fiber was desorbed for 1 minute in an Optic injector port (ATAS GL Int. Zoeterwoude, NL) which was kept at 220° C. For liquid injection 1-3 μL of sample in hexane was injected.
In order to separate alpha-zingiberene from 7-epizingiberene the Astec CHIRALDEX™ B-DM column (30m×0.25 mm×0.12 μm film thickness; Supelco) was selected. The column was placed in an 6890 N gas chromatograph (Agilent, Amstelveen, NI). […] Helium was used as a carrier gas. Mass spectra were generated with the ion source set to −70V at 200° C. and collected with a Time-of-Flight MS (Leco, Pegasus III, St. Joseph, Mich., USA) at 1850 V, with an acquisition rate of 20 scans per second.

Which “toxic effect against adult whiteflies B. tabaci” value [1] does the source give for `CCCCCCCCCCCC(C)=O` [2-tridecanone] here?
The value was “toxic effect”.

Which “toxic effect against fourth instar larvae of Colorado potato beetle” value [2] does the source give for `CCCCCCCCCC(C)=O` [2-undecanone] here?
Its value is “toxic effect”.

For `CC(C)=CCC[C@@H](C)[C@@H]1C=CC(C)=CC1` [7-epizingiberene], which “resistance to whiteflies (adult mortality and oviposition)” value [3] is on record?
Its value is “enhances resistance to whiteflies”.

And the “correlation of oviposition with 7-epizingiberene content” value [4]?
Its value is “negatively correlated”.

What about the “attractiveness of cultivated tomato to B. tabaci after addition of the compound” value [5] of the same molecule?
The value was “less attractive”.

And the “repellent to Bemisia tabaci whiteflies” value [5]?
Its value is “act as repellent”.

What about the “stability when exposed to air” value [6] of the same molecule?
Its value is “spontaneously convert to R-curcumene”.

What does the source list for `CC(C)=CCC[C@@H](C)c1ccc(C)cc1` [R-curcumene]?
attractiveness of cultivated tomato to B. tabaci after addition of the compound [5]: less attractive; repellent to Bemisia tabaci whiteflies [5]: act as repellent

With `CC(C)=CCC[C@H](C)c1ccc(C)cc1` [S-curcumene] as the molecule, how does the “repellent to Bemisia tabaci whiteflies” value [5] read?
The value was “do not”.

Which “repellent to Bemisia tabaci whiteflies” value [5] does the source give for `CC(C)=CCC[C@H](C)[C@@H]1C=CC(C)=CC1` [alpha-zingiberene] here?
The value was “do not”.

B1: ShZIS: 7-epizingiberene synthase protein from Solanum habrochaites, SEQ ID NO:1 (protein)
chain: CSHSTPSSMNGFEDARDRIRESFGKVELSPSSYDTAWVAMVPSKHSLNEPCFPQCLDWIIENQREDGSWGLNPSHPLLLKDSLSSTLACLLALTKWRVGDEQIKRGLGFIETQSWAIDNKDQISPLGFEIIFPSMIKSAEKLNLNLAINKRDSTIKRALQNEFTRNIEYMSEGFGELCDWKEIIKLHQRQNGSLFDSPATTAAALIYHQHDKKCYEYLNSILQQHKNWVPTMYPTKIHSLLCLVDTLQNLGVHRHFKSEIKKALDEIYRLWQQKNEEIFSNVTHCAMAFRLLRISYYDVSSDELAEFVDEEHFFATSGKYTSHVEILELHKASQLAIDHEKDDILDKINNWTRTFMEQKLLNNGFIDRMSKKEVELALRNFYIISDLAENRRYIKSYEENNFKILKAAYRSPNINNKDLFIFSIRDFELCQAQHQEELQQLKRWFEDCRLDQLGLSEQFISASYLCAIPIVPGPELSDARLVYAKYVMLLTIVDDHFESFASTDECLNIIELVERWDDYASVGYKSERVKVLFSMFYKSIEEIATIAEIKQGRSVKNHLINLWLKVMKLMLMERVEWCSGKTIPRIEEYLYVSSITFGSRLIPLTTQYFIGIKISKDLLESDEIYGLCNFTGIVLRLLNDLQDSKREQKEGSINLVTLLMKSISEEEAIMKMKEILEMKRRELFKMVLVQKKGSQLPQLCKEIFWRTCKWAHFTYSQTDRYRFPEEMENHIDEVFYKPLNH
modifications: Solanum habrochaites
For B1, which “product formed from Z-Z-FPP” value [7] is on record?
Its value is “made 7-epizingiberene”.

B2: ObZIS: sweet lemon basil zingiberene synthase (Iijima et al., 2004), alpha-zingiberene synthase (protein, UniProt Q5SBP4 1-541, looked up)
Alpha-zingiberene synthase: MESRRSANYQASIWDDNFIQSLASPYAGEKYAEKAEKLKTEVKTMIDQTRDELKQLELIDNLQRLGICHHFQDLTKKILQKIYGEERNGDHQHYKEKGLHFTALRFRILRQDGYHVPQDVFSSFMNKAGDFEESLSKDTKGLVSLYEASYLSMEGETILDMAKDFSSHHLHKMVEDATDKRVANQIIHSLEMPLHRRVQKLEAIWFIQFYECGSDANPTLVELAKLDFNMVQATYQEELKRLSRWYEETGLQEKLSFARHRLAEAFLWSMGIIPEGHFGYGRMHLMKIGAYITLLDDIYDVYGTLEELQVLTEIIERWDINLLDQLPEYMQIFFLYMFNSTNELAYEILRDQGINVISNLKGLWVELSQCYFKEATWFHNGYTPTTEEYLNVACISASGPVILFSGYFTTTNPINKHELQSLERHAHSLSMILRLADDLGTSSDEMKRGDVPKAIQCFMNDTGCCEEEARQHVKRLIDAEWKKMNKDILMEKPFKNFCPTAMNLGRISMSFYEHGDGYGGPHSDTKKKMVSLFVQPMNITI
With B2 as the molecule, how does the “product formed from E-E-FPP” value [8] read?
The value was “made alpha-zingiberene”.
